How the values were obtained:
ICR mice = experiment: Acute toxicity test, tail vein administration; format: in vivo; conditions: male ICR mice, 24 hours
Experimental: Male ICR mice aged 7 weeks (SLC) were divided into several groups consisting of 5 mice. […] The solution was administered through the tail vein at an infusion rate of 1 mL/minute. Observations were performed at constant interval, and the survival rate was judged for 24 hours.

[1] = tested on: Normal human mesangial cells; experiment: Inhibitory effect on human FXa-induced human mesangial cell proliferation (DNA amount by fluorescence); format: cell-based; conditions: for Fluorescence intensity: FXa 20 nM, 111 hours culture
Experimental: Normal human mesangial cells were seeded at 10000 cells/200 μL of Mesangial cell growth medium/well in 96-well plates, and cultured in CO2 incubator (37° C., O2:CO2=95:5). One day after seeding, cells were rinsed with Mesangial cell basal medium containing 0.5% bovine serum albumin (not containing growth factors), and then replaced the medium with Mesangial cell basal medium containing 0.5% bovine serum albumin (not containing growth factors) which was containing human activated coagulation factor X (hereinafter referred to as FXa; Calbiochem) and a test compound of certain concentrations, and cultured for 111 hours in CO2 incubator (37° C., O2:CO2=95:5). After cultivation, cells were rinsed with Hank's balanced salt solution at 250 μL/well, and frozen preservation of the cells at −30° C. was carried out until the measurement of the amount of DNAs for every plate. For measurement of the amount of DNAs, fluorescence intensity (measurement condition: excitation 480 nm; emission 520 nm) was estimated using Cell Proliferation Assay Kit (Molecular Probe). […] In addition, it is shown that * in the Table has a significant difference (p<0.05) compared with the group which was added FXa alone.

db/db mice [2] = experiment: Inhibitory effect on development of diabetic nephropathy in db/db mice (urine albumin/creatinine ratio); format: in vivo; conditions: 100 mg/kg orally twice a day for 10 weeks
Experimental: Six weeks old male db/db mice (20 individuals) and non-diabetic type db/+m mice (10 individuals) were used. db/db Mice were divided into two groups (each 10 individuals), a test compound suspended in a 0.5% methylcellulose solution was orally administrated at 100 mg/kg to one group (test compound group) twice a day. On the other hand, a 0.5% methylcellulose solution alone was orally administrated to another group (control group) and db/+m mice twice a day. After continuing administration for 10 weeks, urine collection was performed for each mouse using a metabolism cage for 24 hours. Insoluble substances in collected urine samples were removed by centrifugal separation. The urine albumin/creatinine ratio which can be obtained by rectifying the urine albumin concentration by the urine creatinine concentration was evaluated as the index of the urine protein excretion. In addition, the urine albumin/creatinine ratio was calculated based on the formula below. Urine albumin/creatinine ratio=Urine albumin concentration/Urine creatinine concentration Urine albumin concentration was measured using a Murine Microalbuminurea ELISA Kit (Exocell Icc.), and urine creatinine concentration was measured using a commercial kit for creatinine (Wako). […] In addition, it is shown that * in the Table has a significant difference (p<0.05) compared with control group.

db/db mice [3] = experiment: Inhibitory effect on hypercoagulable state in db/db mice (plasma TAT level); format: in vivo; conditions: 100 mg/kg orally, one hour after administration
Experimental: Thirty two weeks old male db/db mice (11 individuals) and wild type +m/+m mice (6 individuals) were used. db/db Mice were divided into two groups, a 0.5% methylcellulose solution containing a test compound at 100 mg/kg was orally administrated to one group (test compound group, 6 individuals). On the other hand, a 0.5% methylcellulose solution alone was orally administrated to another group (control group, 5 individuals) and +m/+m mice. One hour after administration, mice were anesthetized with diethyl ether. […] Plasma thrombin-antithrombin III complex (TAT) level was measured using an EIA (enzyme immunoassay) kit (Dade behring). […] In addition, it is shown that * in the Table has a significant difference (p<0.05) compared with control group.

SMILES	Number of death (ICR mice; Method B: 100 mg/10 mL/kg)	Inhibition of human FXa-induced mesangial cell proliferation (in words) ([1]; FXa-induced human mesangial cells)	Fluorescence intensity ([1]; test compound 1 μM, FXa alone 227.0, no FXa 186.8)	Fluorescence intensity ([1]; test compound 10 μM, * p<0.05 vs FXa alone (227.0))	Number of death (ICR mice; Method A: 50 mg/10 mL/kg)	Inhibition of urine albumin excretion (in words) (db/db mice [2])	Urine albumin/creatinine ratio (db/db mice [2]; 24 hours urine, * p<0.05 vs control group (0.386))	Effect on plasma TAT level / hypercoagulable state (in words) (db/db mice [3])	Plasma thrombin-antithrombin III complex level (db/db mice [3]; * p<0.05 vs control group (69.25))
CS(=O)(=O)c1ccccc1-c1ccc(CCNS(=O)(=O)c2cc(C(=N)N)ccc2O)c(OCC(=O)O)c1.Cl [Compound 33, [4-[2-(5-Carbamimidoyl-2-hydroxybenzenesulfonylamino)-ethyl]-2′-methanesulfonoylbiphenyl-3-yloxy]acetic acidhydrochloride]	0/5	inhibited human FXa-induced mesangial cell proliferation concentration-dependently	206.2	178.3*					
CS(=O)(=O)c1ccccc1-c1ccc(CCNS(=O)(=O)c2cc(C(=N)NO)ccc2O)c(OCC(=O)O)c1 [Compound 47, [4-[2-[2-Hydroxy-5-(N-hydroxycarbamimidoyl)benzenesulfonylamino]ethyl]-2′-methanesulfonylbiphenyl-3-yloxy]acetic acid]	0/5				0/5				
CCCCOC(=O)COc1cc(-c2ccccc2S(C)(=O)=O)ccc1CCNS(=O)(=O)c1cc(C(=N)NO)ccc1O.Cl [Compound 48, n-Butyl [4-[2-[2-Hydroxy-5-(N-hydroxycarbamimidoyl)-benzenesulfonylamino]ethyl]-2′-methanesulfonylbiphenyl-3-yloxy]acetate hydrochloride]						inhibited urine albumin excretion significantly	0.202*	decreased plasma TAT level significantly	8.31*

— patent US7563822B2, “Agents for the prevention or treatment of renal diseases” (Kissei Pharmaceutical Co., Ltd., priority 2002, dated 2009)
